The text below walks through data of ChEMBL document CHEMBL1134993, “Synthesis of [difluoro-(3-alkenylphenyl)-methyl]-phosphonic acids on non-crosslinked polystyrene and their evaluation as inhibitors of PTP1B” (Bioorg Med Chem Lett, 2002).

Each structure is given as a SMILES string. Activity calls are given as the source filed them. No cut-off for these calls is given here.

The target in the first experiment is T1, Tyrosine-protein phosphatase non-receptor type 1 (Homo sapiens) (UniProt P18031).
T1 sequence (whole entry): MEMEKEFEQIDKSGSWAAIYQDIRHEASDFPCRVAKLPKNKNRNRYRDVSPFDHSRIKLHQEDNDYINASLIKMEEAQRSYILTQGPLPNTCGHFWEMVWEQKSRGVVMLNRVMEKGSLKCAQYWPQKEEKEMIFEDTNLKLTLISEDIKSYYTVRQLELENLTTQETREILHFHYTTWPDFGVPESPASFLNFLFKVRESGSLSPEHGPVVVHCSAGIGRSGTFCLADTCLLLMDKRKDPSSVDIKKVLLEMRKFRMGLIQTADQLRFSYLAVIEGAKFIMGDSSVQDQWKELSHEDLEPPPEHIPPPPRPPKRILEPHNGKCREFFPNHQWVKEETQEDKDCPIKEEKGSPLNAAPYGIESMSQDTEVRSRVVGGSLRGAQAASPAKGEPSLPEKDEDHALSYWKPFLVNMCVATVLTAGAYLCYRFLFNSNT
The experiment in a line: Compound was evaluated for its percent Inhibition of protein-tyrosine phosphatase 1B (PTP1B) at the concentration of 50 uM; Showed little or no inhibition.
A word on the inhibition: it is the drop in the measured response relative to a control, in per cent. Take `O=P(O)(O)C(F)(F)c1cccc(/C=C\c2ccc(Cl)cc2)c1`: the inhibition result was “inactive”. Same read-out and setting: for `O=P(O)(O)C(F)(F)c1cccc(/C=C\c2ccc(Br)cc2)c1` the value was “inactive”; for `O=P(O)(O)C(F)(F)c1cccc(/C=C\c2ccc(F)cc2)c1`, “inactive”.

`Cc1ccccc1/C=C\c1cccc(C(F)(F)P(=O)(O)O)c1`: the inhibition entry was “inactive”.

Turning to `O=P(O)(O)C(F)(F)c1cccc(/C=C\c2ccccc2)c1`, the inhibition entry was “inactive”. The same measure, in the same setting: then `Cc1ccc(/C=C\c2cccc(C(F)(F)P(=O)(O)O)c2)cc1`, with “inactive”; and `CCOc1ccc(/C=C\c2cccc(C(F)(F)P(=O)(O)O)c2)cc1`, with “inactive”. Same read-out and setting: then `O=[N+]([O-])c1ccc(/C=C\c2cccc(C(F)(F)P(=O)(O)O)c2)cc1`, with “inactive”.

The next experiment deals with T2, Tyrosine-protein phosphatase non-receptor type 1 (Homo sapiens, UniProt P18031).
T2 sequence (P18031 whole entry): T1 sequence (whole entry)
The experiment can be described thus: Binding affinity towards protein-tyrosine phosphatase 1B (PTP1B).
As a reminder, the Ki is a dissociation constant, usually derived from enzyme kinetics or from competition with a known ligand. Low readings indicate tighter binding, high ones weaker binding. Compound `C=CCOC(=O)/C=C\c1cccc(C(F)(F)P(=O)(O)O)c1` registered a Ki of 8 mM.

A further experiment addresses T1, Tyrosine-protein phosphatase non-receptor type 1 (Homo sapiens). The experiment in a line: Compound was evaluated for its percent Inhibition of protein-tyrosine phosphatase 1B (PTP1B) at the concentration of 50 uM.
The compound `COC(=O)/C=C\c1cccc(C(F)(F)P(=O)(O)O)c1` showed an inhibition of 23%. Same read-out and setting: then `O=P(O)(O)C(F)(F)c1cccc(/C=C\C=C\c2ccccc2)c1`, with 70%. Still for that read-out and setting: then `O=P(O)(O)C(F)(F)c1cccc(/C=C\c2cccc3ccccc23)c1`, with 60%; and `N#C/C=C\c1cccc(C(F)(F)P(=O)(O)O)c1`, with 45%; and `O=C(/C=C\c1cccc(C(F)(F)P(=O)(O)O)c1)OCc1ccccc1`, with 71%.

For the compound `CCOC(=O)/C=C\c1cccc(C(F)(F)P(=O)(O)O)c1`, the inhibition is 53%. On the same count and under the same terms, then `C=CCOC(=O)/C=C\c1cccc(C(F)(F)P(=O)(O)O)c1`, with 84%.

A further experiment concerns the target T2, Tyrosine-protein phosphatase non-receptor type 1. The experiment can be described thus: Inhibitory concentration against protein-tyrosine phosphatase 1B (PTB 1B).
One may read the IC50 as the concentration at which inhibition is half-maximal. Low values mean inhibition by little substance, high ones a need for much substance. Regarding `O=P(O)(O)C(F)(F)c1cccc(-c2ccccc2)c1`, the IC50 amounted to 0.015 mM.

For the next experiment, the target named is T1, Tyrosine-protein phosphatase non-receptor type 1 (Homo sapiens). The experiment can be described thus: Compound was evaluated for its percent Inhibition of protein-tyrosine phosphatase 1B (PTP1B) at the concentration of 50 uM; […].
Turning to `CC/C=C\c1cccc(C(F)(F)P(=O)(O)O)c1`, the inhibition result is “inactive”. Still for that read-out and setting: then `O=P(O)(O)C(F)(F)c1cccc(/C=C\CCc2ccccc2)c1`, with “inactive”; and `CC(C)=C/C=C\c1cccc(C(F)(F)P(=O)(O)O)c1`, with “inactive”; and `O=P(O)(O)C(F)(F)c1cccc(/C=C\Cl)c1`, with “inactive”. Take `CN(C)C/C=C\c1cccc(C(F)(F)P(=O)(O)O)c1`: the inhibition result was “inactive”.

The target of a further experiment is T2, Tyrosine-protein phosphatase non-receptor type 1. The experiment in a line: Inhibitory concentration against Protein-tyrosine phosphatase 1B (PTP1B).
In the case of `C=CCOC(=O)/C=C\c1cccc(C(F)(F)P(=O)(O)O)c1`, the midpoint of inhibition, the IC50, lay at 12.2 mM. That is a millimolar value.
